Laboratory results from BindingDB's records for doi:10.1016/j.bmcl.2003.12.063 (Sankyo, 2004).

Target: Ileal sodium/bile acid cotransporter (Mesocricetus auratus)
Assay: In vitro Inhibition of apical sodium-dependent bile acid transporter by measuring the uptake of [3H]taurocholate in hamster ileal ring

Structure (SMILES)	IC50 [µM]
CCC(CC)CC(=O)c1c(C(=O)OC)c(-c2ccc(OC)c(OC)c2)c2c(OC)c(OC)c(OC)cc2c1O [1-(3,4-Dimethoxy-phenyl)-3-(3-ethyl-pentanoyl)-4-hydroxy-6,7,8-trimethoxy-naphthalene-2-carboxylic acid methyl ester]	> 185
CCC(CC)CC(=O)c1c(C(=O)OC)c(-c2ccc(OC)c(OC)c2)c2c(OC)c(OC)c(OC)cc2c1OC1O[C@H](C(=O)O)[C@@H](O)[C@H](O)[C@H]1O (stereo partly drawn) [(2S,3S,4S,5R)-6-[4-(3,4-Dimethoxy-phenyl)-2-(3-ethyl-pentanoyl)-5,6,7-trimethoxy-3-methoxycarbonyl-naphthalen-1-yloxy]-3,4,5-trihydroxy-tetrahydro-pyran-2-carboxylic acid]	2.8
CCCCC1(CCCC)CS(=O)(=O)c2ccc(N(C)C)cc2[C@@H](c2ccc(OC)cc2)[C@H]1O [(4R,5R)-3,3-Dibutyl-7-dimethylamino-5-(4-methoxy-phenyl)-1,1-dioxo-2,3,4,5-tetrahydro-1H-1lambda*6*-benzo[b]thiepin-4-ol]	> 63

Now those with a lower IC50, led by results:

IC50 [µM]	Structure (SMILES)
1.07	CCN(C(=O)c1cn(-c2cc(OC)cc(OC)c2)c2cc(OCCCCCCCC[N+]34CCN(CC3)CC4)ccc2c1=O)c1cc(F)cc(F)c1 [1-{8-[3-[(3,5-Difluoro-phenyl)-ethyl-carbamoyl]-1-(3,5-dimethoxy-phenyl)-4-oxo-1,4-dihydro-quinolin-7-yloxy]-octyl}-4-aza-1-azonia-bicyclo[2.2.2]octane; bromide]
0.77	CCN(C(=O)c1cn(-c2cc(OC)cc(OC)c2)c2cc(OCCCCCCC[N+]34CCN(CC3)CC4)ccc2c1=O)c1cc(F)cc(F)c1 [1-{7-[3-[(3,5-Difluoro-phenyl)-ethyl-carbamoyl]-1-(3,5-dimethoxy-phenyl)-4-oxo-1,4-dihydro-quinolin-7-yloxy]-heptyl}-4-aza-1-azonia-bicyclo[2.2.2]octane; bromide]
